The values below are quoted from earlier work in paper PMC6287472 (International Journal for Parasitology: Drugs and Drug …, 2018).

The target of series [1] is T1, Sm.5HTRL (Schistosoma mansoni, UniProt A0A173FEI8).
T1 sequence (A0A173FEI8 1-547): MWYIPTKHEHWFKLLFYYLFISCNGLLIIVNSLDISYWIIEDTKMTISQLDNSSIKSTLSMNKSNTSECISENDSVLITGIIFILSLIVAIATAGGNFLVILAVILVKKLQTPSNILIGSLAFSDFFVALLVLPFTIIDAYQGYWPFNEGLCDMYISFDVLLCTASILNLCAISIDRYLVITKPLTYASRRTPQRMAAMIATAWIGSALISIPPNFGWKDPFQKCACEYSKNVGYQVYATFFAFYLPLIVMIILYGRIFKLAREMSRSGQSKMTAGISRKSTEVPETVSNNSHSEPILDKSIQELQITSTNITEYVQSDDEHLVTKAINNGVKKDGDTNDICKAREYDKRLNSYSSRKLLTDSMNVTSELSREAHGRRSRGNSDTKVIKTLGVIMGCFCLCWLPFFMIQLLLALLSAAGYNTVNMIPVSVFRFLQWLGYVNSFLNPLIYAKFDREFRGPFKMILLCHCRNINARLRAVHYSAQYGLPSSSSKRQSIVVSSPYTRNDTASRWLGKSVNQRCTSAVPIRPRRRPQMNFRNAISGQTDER
Conditions: ref Chan et al., 2018; cited from earlier work.

For series [2], the system named is human 5-HT7 receptor. Conditions: ref Wacker et al., 2013; cited from earlier work.

In the case of `CN1C[C@H](C(=O)N[C@]2(C)O[C@@]3(O)[C@@H]4CCCN4C(=O)[C@H](Cc4ccccc4)N3C2=O)C=C2c3cccc4[nH]cc(c34)C[C@H]21` [ergotamine], in series [1], the “activity at Sm.5HTRL (in words)” value is given as “full agonist”. Further, the “activity at human 5-HT7 receptor (in words)” value in series [2] is “potent antagonist”.
